Reference: US20080305085A1, “Compositions And Methods For Stem Cell Expansion” (priority 2004, published 2008)

Columns and labels:
[1] = tested on: Sca1+lin− bone marrow cells; test: Culture of Sca1+lin− bone marrow cells with or without soluble OPN for 7 days, cells counted; assay type: cell-based, mouse; settings: Sca1+lin− cells of C57B1/6 mice, 7 days in SCF, Flt-3, TPO, IL-3, OPN 1 μg/ml, versus without OPN
Description: (§1) FIGS. 5A-5C are graphs showing that soluble OPN induces apoptosis of primitive hematopoietic cells. Sca1^+lin^− cells were isolated from the bone marrow of C57B1/6 mice and cultured in IMDM containing 10% fetal calf serum (FCS), stem cell factor (SCF), Flt-3, thrombopoietin (TPO) and IL-3 with or without OPN [1 μg/ml]. After 7 days the cells were counted and analyzed in functional hematopoietic assays.
(§2) Exogenous OPN was used to assess its potential role in regulating primitive cells directly rather than through the altered expression of other regulators within the niche. Initial experiments cultured Sca1^+lin^− bone marrow cells of C57B1/6 mice in medium containing stem cell factor (SCF), Flt-3, thrombopoietin (TPO), and IL-3 with and without OPN for 7 days. The cells were subsequently counted and analyzed in functional in vitro progenitor and stem cell assays. Addition of soluble OPN led to a lower total cell number with an unperturbed absolute number of CFCs representing hematopoietic progenitor cell activity (n=5) (FIG. 5A).
(§3) Mouse bone marrow was obtained from 8-12 week old 129/C57BL/6 OPN^+/+ and 129/C57BL/6 OPN^−/− mice, sacrificed with CO2. Bone marrow cell and spleen cell suspensions were flushed from femurs and tibias or take from spleen, filtered through 100 μm-mesh nylon cloth (Sefar America Inc., Kansas City, Mo.), and stored on ice until use. […]

[2] = tested on: Sca1+lin− bone marrow cells; test: Limiting dilution LTC-IC assay after 7 day culture with OPN; assay type: cell-based, mouse; settings: after 7 days culture with OPN 1 μg/ml; without OPN 35.9±5.14; P=0.002, n=5
Description: as §1
as §2, with “Addition of soluble OPN led to a lower total cell number with an unperturbed absolute number of CFCs representing hematopoietic progenitor cell activity (n=5) (FIG. 5A).” left out
To quantify the stem cells in the bone marrow and spleen cell suspension, the CAFC assay^36 was adapted with minor modifications as described in our previous publication^37. To measure long term culture-initiating cells (LTC-IC) the semisolid, cytokine containing methylcellulose medium for CFC was overlaid into the wells at week 5 and the colonies were counted at day ten. […]

[3] = tested on: Sca1+lin− bone marrow cells; test: Colony-forming cell (CFC) assay after 7 day culture with OPN; assay type: cell-based, mouse; settings: after 7 days culture with OPN 1 μg/ml versus without OPN, n=5
Description: as §1, §2, §3

[4] = tested on: lin− primitive hematopoietic cells; test: Apoptosis by AnnexinV / 7-AAD flow cytometry of cells cultured with OPN; assay type: cell-based, mouse; settings: cultured with OPN 1 μg/ml versus without OPN
Description: as §1
The fraction of apoptotic cells was next analyzed by staining with lineage markers, 7-AAD and AnnexinV. […] OPN exerted a pro-apoptotic effect on primitive cells potentially constraining the size of the stem cell pool.
Flow cytometry was used to quantify the hematopoietic cells at different stages in the peripheral blood and the bone marrow of the transplanted animals. […] To quantify the enriched stem cell phenotype (Sca1^+lin^−) in primary animals and in transplanted animals bone marrow cells were stained with biotinylated lineage antibodies (CD3, Ter119 (Pharmingen, San Diego, Calif.), CD4, CD8, B220, IgM, Gr-1 and Mac1 (Caltag, Burlingame, Calif.)), c-kit-APC (Pharmingen, San Diego, Calif.) and Sca1-PE (Caltag, Burlingame, Calif.). The cells were analyzed after labeling with the secondary antibody Streptavidin-PerCP (Becton Dickinson, Franklin Lakes, N.J.). […]

[5] = tested on: Jagged1; test: Jagged1 expression by RT-PCR in wild-type bone marrow stroma exposed to OPN ex vivo; assay type: cell-based, mouse; settings: OPN 1 ug/ml, four hours ex vivo
From the text: FIGS. 4A-4F are graphs showing that OPN^−/− bone marrow has unaltered cell cycle profiles associated with increased stromal Jagged1 and Angiopoietin-1 expression and reduced primitive cell apoptosis. FIG. 4A is a graph showing that bone marrow Sca1^+ c-kit^+lin^− cells that show bright staining for Hoechst33342 are cells in the G2/M phase of the cell cycle (n=3 pairs). […] Data are the result of two independent experiments with four mice per group in each experiment. […] Data were normalized to an intrasample GAPDH standard and the results of the OPN^−/− versus OPN^+/+ cells were compared by ratio. […] Data are normalized against GAPDH expression measured by RT PCR. […] AnnexinV-positive/7-AAD-negative apoptotic Sca1^+c-kit^+lin^− cells are shown (n=4 pairs). […] Analyses were performed on the lin^− fraction twelve weeks after transplantation (n=4).
Stem cell expansion may occur without increased proliferation in the context of Notch1 activation where stem cell self renewal is favored over differentiation^23,24. Activation of Notch1 on primitive hematopoietic cells in vivo was previously shown to result in an increase in primitive cells, but reduced progenitor cells similar phenotype to that reported herein^23. […]
The expression of Jagged1, Angiopoietin1 and N-cadherin in bone marrow stroma cells was measured by RT-PCR. […]

[6] = tested on: Sca1+c-kit+lin− cells; test: In vivo PTH treatment, Sca1+c-kit+lin− cells in bone marrow by flow cytometry; parameters: species or system mouse; settings: for magnitude of Sca1+c-kit+lin− increase induced by PTH, absolute number / magnitude of Sca1+c-kit+lin− increase induced by PTH, proportion: four weeks of PTH
Description: FIG. 6 is a graph showing that OPN deficiency permits increased primitive hematopoietic cell compartment expansion after niche activation by parathyroid hormone (PTH): OPN^+/+ and OPN^−/− mice were treated with PTH by daily injection for 4 weeks. The bone marrow was analyzed by flow cytometry.
Parathyroid hormone is capable of activating niche osteoblasts and expanding the number of stem cells in vitro and in vivo in a Notch mediated manner. […] Stimulation with PTH increases OPN production leading to the hypothesis that the degree of stem cell expansion possible by PTH niche activation may be restricted by OPN. Using the OPN null or wild type mouse, the number of primitive cells was assessed following four weeks of PTH stimulation. A difference in the number of Sca1^+c-kit^+lin^− was noted between the OPN null and wild type mouse prior to PTH (FIG. 6). With PTH treatment, there was an increase in the Sca1^+c-kit^+lin^− cells in each genotypic background.
6-8 week old wild-type or null male mice were injected with rat PTH (1-34) (Bachem, Torrance, Calif.) (80 μg/Kg of body weight) or vehicle alone intraperitoneally 5×/week for 4 weeks (n=4-6/group). Animals were sacrificed and bone marrow cell isolated and analyzed as above.
Flow cytometry was used to quantify the hematopoietic cells at different stages in the peripheral blood and the bone marrow of the transplanted animals. Bone marrow nucleated cells were labeled with the leukocyte antibodies Ly5.1-PE and Ly5.2-biotin (Pharmingen, San Diego, Calif.), lineage antibodies (CD3-PerCP, CD4-PE, B220-PE, Ter119-PE, (Pharmingen, San Diego, Calif.), CD8-Tri, Gr-1-Tri, Mac1-PE (Caltag)), and stem cell markers (Sca1-Tri and PE, c-kit-Tri (Caltag, Burlingame, Calif.)). To quantify the enriched stem cell phenotype (Sca1^+lin^−) in primary animals and in transplanted animals bone marrow cells were stained with biotinylated lineage antibodies (CD3, Ter119 (Pharmingen, San Diego, Calif.), CD4, CD8, B220, IgM, Gr-1 and Mac1 (Caltag, Burlingame, Calif.)), c-kit-APC (Pharmingen, San Diego, Calif.) and Sca1-PE (Caltag, Burlingame, Calif.). The cells were analyzed after labeling with the secondary antibody Streptavidin-PerCP (Becton Dickinson, Franklin Lakes, N.J.). For cell cycle analyses bone marrow cells were incubated with stem cell markers and the DNA dye Hoechst33342. The proportion of apoptotic cells were measured by staining with AnnexinV (Caltag, Burlingame, Calif.) and the DNA-dye 7-AAD (Sigma, St. Louis, Mo.).

Substance: OPN: Osteopontin, a secreted, highly acidic glycoprotein; OPN protein was obtained from R&D Systems
- total cell number [1]: lower
- absolute number of LTC-ICs [2]: 16.41±4.5 LTC-ICs/well
- absolute number of CFCs [3]: unperturbed
- percentage of AnnexinV+7-AAD− cells in the lin− cell population [4]: higher percentage
- Jagged1 expression (RT-PCR, normalized to GAPDH) [5]: statistically significantly reduced

Substance: PTH: rat PTH (1-34) (Bachem), parathyroid hormone used to activate niche osteoblasts (AVSEIQLMHNLGKHLASVERMQWLRKKLQDVHNF; Parathyroid hormone; UniProt P04089 32-65, looked up, fragment)
- Sca1+c-kit+lin− cells after PTH treatment ([6]; OPN null and wild type mice, 80 μg/Kg i.p. 5×/week for 4 weeks): increase
- magnitude of Sca1+c-kit+lin− increase induced by PTH, absolute number ([6]; OPN null mice): 5.94×10^4 stem cells per femur pair
- magnitude of Sca1+c-kit+lin− increase induced by PTH, proportion ([6]; OPN null mice): 10.0%
- magnitude of Sca1+c-kit+lin− increase induced by PTH, absolute number ([6]; wild type mice): 3.82×10^4 stem cells per femur pair
- magnitude of Sca1+c-kit+lin− increase induced by PTH, proportion ([6]; wild type mice): 7.5%
